Columns and labels:
ALK2 = target: T1, ALK2 (Mus musculus, UniProt P37172); experiment: Luciferase reporter gene assay for ALK2 activity (C2C12 BRE-Luc SMAD1/5/8 reporter, BMP6 agonist); format: cell-based; settings: BMP6 50 ng/mL
T1 construct: endogenous in cells; host or cells: C2C12-BRE (BRE-Luc reporter line, G418 selection)
T1 sequence (P37172 21-509): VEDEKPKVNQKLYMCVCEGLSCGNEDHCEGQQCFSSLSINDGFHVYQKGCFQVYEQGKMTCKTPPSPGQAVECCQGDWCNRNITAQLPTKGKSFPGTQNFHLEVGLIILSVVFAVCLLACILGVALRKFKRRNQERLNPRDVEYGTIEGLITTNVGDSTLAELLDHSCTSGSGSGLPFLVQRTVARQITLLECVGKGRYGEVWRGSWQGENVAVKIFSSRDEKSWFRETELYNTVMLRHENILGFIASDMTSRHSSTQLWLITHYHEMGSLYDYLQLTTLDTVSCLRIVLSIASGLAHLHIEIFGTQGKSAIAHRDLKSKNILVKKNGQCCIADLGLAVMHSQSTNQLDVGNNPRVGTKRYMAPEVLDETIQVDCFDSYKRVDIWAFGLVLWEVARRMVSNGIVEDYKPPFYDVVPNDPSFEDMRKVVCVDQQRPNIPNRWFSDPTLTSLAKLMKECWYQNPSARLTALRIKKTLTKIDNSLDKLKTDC
Procedure: (§1) All cell lines were cultured in DMEM, supplemented with […] and 1% Pen/Strep. All media reagents were obtained from Gibco. BMP6, BMP9, and TGFβ were obtained from R&D Systems. C2C12-BRE and HEK293T-SBE were kept in selection with 400 ug/mL G418 from Invivogen.
(§2) In this reporter gene cell based ALK2 and TGFβ assay, the C2C12 cell line was employed for the measurement of ALK2 activity, using a BRE-Luc SMAD1/5/8 reporter and BMP6 as the agonist. The HEK293T cell line was employed to measure TGFβ activity, using a SBE-Luc SMAD2/3 reporter and TGFβ as the agonist. Luciferase reporter assays were read using Promega Steady-Glo Luciferase Assay System.
(§3) Cells were plated in 96 well white clear bottom assay plates at 10 k cells/well for C2C12-BRE, 15 k cells/well for HEK293-SBE in DMEM containing 2% FBS 1% P/S. Cells were given a minimum of 4 hours in incubator at 37° C./5% CO2 to adhere prior to further treatment. Compounds were diluted in DMSO to a 10-point dilution curve and added to the plate to reach the following final concentrations: 10000, 3000, 1000, 300, 100, and 30 nM in the HEK293-SBE assay and 1000, 300, 100, 30, 10, 3, 1, 0.3 nM in the C2C12-BRE assay. Negative and positive control wells received 2 μL DMSO as vehicle treatment. Plates were returned to incubator for 45 minutes and then BMP6 and TGFB were added to a final concentration of 50 ng/mL and 5 ng/mL, respectively. Plates were returned to the incubator and left overnight. After a minimum of 18 hours post BMP6/TGFβ addition, the plates were read using Promega Steady-Glo Luciferase Assay System. A 1:1 mixture of prepared steady-glo and phenol free DMEM was prepared, and 50 μL/well was added to the assay plates whose media had been flicked off. Plates were given 10 minutes post steady-glo addition before luminescence was read on a Spectramax M5e microplate reader. Negative control wells were averaged and subtracted from all other wells on the plate. Inhibition was calculated as the percent of signal loss compared to the averaged positive control wells.

TGFβ = experiment: Luciferase reporter gene assay for TGFβ activity (HEK293T SBE-Luc SMAD2/3 reporter, TGFβ agonist); format: cell-based; settings: Homo sapiens, HEK-293T, TGFβ 5 ng/mL
Procedure: as §1, §2, §3

IC50 (ALK2) [nM]	IC50 (TGFβ) [nM]	Structure (SMILES)
98	> 1000	Cc1cc(-c2cnn3cc(N4CCC(N5CCN(C)CC5)CC4)cnc23)c2cccc(C(F)(F)F)c2n1 [Compound 268]
26	141	COc1cc2c(-c3cnn4cc(N5C[C@H]6CN(C)C[C@H]6C5)cnc34)ccnc2cc1F [Compound 218]
298	286	COc1cc2c(-c3cnn4cc(N5CCN(C)CC5)cnc34)ccnc2cc1F [Compound 195]
175	306	CN1CCN(C2CCN(c3cnc4c(-c5cc(C(F)F)nc6ccccc56)cnn4c3)CC2)CC1 [Compound 238]
> 3000	210	COc1cc2c(-c3cnn4cc(N5CCC(N6CC[N+](C)(C)CC6)CC5)cnc34)ccnc2cc1F [Compound 44]
28	335	COc1cc(-c2cnn3cc(N4CC(N5CCN(C)CC5)C4)cnc23)cc(OC)c1OC [Compound 309]
114	327	CCN1CCN(C2CCN(c3cnc4c(-c5ccnc6cc(F)c(OC)cc56)cnn4c3)CC2)CC1 [Compound 40]
162	> 2000	CN1CCN(C2CCN(c3cnc4c(-c5ccnc6ccc(Cl)c(F)c56)cnn4c3)CC2)CC1 [Compound 267]
137	92	Cc1cc(-c2cnn3cc(N4CCC(N(C)C)CC4)cnc23)c2ccccc2n1 [Compound 189]
476	605	CN1CCN(C2CCN(c3cnc4c(-c5ccnc6cc[nH]c56)cnn4c3)CC2)CC1 [Compound 228]
13	389	Cc1cc(-c2cnn3cc(N4CC5(CC(N)C5)C4)cnc23)c2ccccc2n1 [Example 295]
> 3000	> 3000	COc1ccc2ncc(F)c(-c3cnn4cc(N5CCC(N6CCN(C)CC6)CC5)cnc34)c2c1 [Compound 271]
32	> 1000	COc1cc2c(-c3cnn4cc(N5CCC(N6CCN(C)CC6)CC5)cnc34)ccnc2cc1O [Compound 239]
> 1000	> 3000	COc1cc2c(-c3nnc4cc(N5CCC(N6CCN(C)CC6)CC5)ccn34)ccnc2cc1F [Compound 354]
223	56	CC(=O)N1CCC(N2CCN(c3cnc4c(-c5cc(C)nc6ccccc56)cnn4c3)CC2)CC1 [Compound 24]
631	1920	COc1cc2c(-c3cnn4cc(N5CCC(N6CC[N+](C)([O-])CC6)CC5)cnc34)ccnc2cc1F [Compound 43]
52	9	CN1CCN(C2CCN(c3cnc4c(-c5cc(N)nc6ccccc56)cnn4c3)CC2)CC1 [Compound 229]
27	1280	CCOc1ccc2nccc(-c3cnn4cc(N5CCC(N6CCN(C)CC6)CC5)cnc34)c2c1 [Compound 21]
31	897	Cc1ccc2nccc(-c3cnn4cc(N5CCC(N6CCN(C)CC6)CC5)cnc34)c2c1F [Compound 278]
7	10	Cc1cc(-c2cnn3cc(N4CCN(c5ccncc5)CC4)cnc23)c2ccccc2n1 [Compound 27]
89	184	COc1cc2c(-c3cnn4cc(N5CCOCC5)cnc34)ccnc2cc1F [Compound 192]
13	327	COc1cc2c(-c3cnn4cc(N5CC(CC#N)(N6CCN(C)CC6)C5)cnc34)ccnc2cc1F [Compound 201]
24	376	[2H]C([2H])([2H])N1CCN(C2CCN(c3cnc4c(-c5ccnc6cc(F)c(OC)cc56)cnn4c3)CC2)CC1 [Compound 45]

Second part, the molecule before the results:

Structure (SMILES)	IC50 (ALK2) [nM]	IC50 (TGFβ) [nM]
COc1cc2c(-c3cnn4cc(N5CCC(N(C)C)CC5)cnc34)ccnc2cc1F [Compound 188]	50	126
COc1cc2c(-c3cnn4cc(N5CCC(N6CCN(C)C(=O)C6)CC5)cnc34)ccnc2cc1F [Compound 323]	194	> 1000
COc1cc(F)c2nccc(-c3cnn4cc(N5CC(N6CCN(C)CC6)C5)cnc34)c2c1 [Compound 314]	8	27
Cc1cc(-c2cnn3cc(N4CCOCC4)cnc23)c2ccccc2n1 [Compound 197]	395	623
COc1cc2c(-c3cnn4cc(N5CCC(N6CCN(C)CC6)C(C)C5)cnc34)ccnc2cc1F (stereo not shown) [Compound 61]	> 1000	> 3000
COc1cc2c(-c3cnn4cc(N5CCC(N6CC7CCC(C6)N7)CC5)cnc34)ccnc2cc1F [Compound 52]	29	358
COc1cc2c(-c3cnn4cc(N5CCC(N6CCN(C)CC6)CC5)cnc34)cc(=O)[nH]c2cc1F [Compound 220]	> 1000	> 1000
COc1cc2c(-c3cnn4cc(N5CC(c6ccncc6)C5)cnc34)ccnc2cc1F [Compound 209]	15	62
CN1CCN(C2CCN(c3cnc4c(-c5ccnc6cccnc56)cnn4c3)CC2)CC1 [Compound 205]	593	> 3000
CN1CCN(C2CCN(c3cnc4c(-c5ccnc6c5ccn6C)cnn4c3)CC2)CC1 [Compound 253]	193	> 1000
[2H]C([2H])([2H])Oc1cc2c(-c3cnn4cc(N5CCC(N6CCN(C)CC6)CC5)cnc34)ccnc2cc1F [Compound 346]	18	686
COc1cc(F)c2nccc(-c3cnn4cc(N5CCC(N6CCN(C)CC6)CC5)cnc34)c2c1 [Compound 273]	14	267
CN1CCN(C2CCN(c3cnc4c(-c5cnn(C)c5)cnn4c3)CC2)CC1 [Compound 246]	> 1000	> 1000
CN1CCN(C2CCN(c3cnc4c(-c5ccnc6sccc56)cnn4c3)CC2)CC1 [Compound 250]	17	202
COc1cc2c(-c3cnn4cc(N5CCC(N6CCCN(C)CC6)CC5)cnc34)ccnc2cc1F [Compound 42]	9	59
CN1CCN(C2CCN(c3cnc4c(-c5ccnc6ccsc56)cnn4c3)CC2)CC1 [Compound 248]	57	2880
COc1cc2c(-c3cnn4cc(N5CCC(N6CCN(C)C(C)C6)CC5)cnc34)ccnc2cc1F (stereo not shown) [Compound 41]	236	1230
Cc1cc(-c2cnn3cc(N4CCC(N5CCN(C)CC5)CC4)cnc23)c2cc(F)cc(F)c2n1 [Compound 276]	164	64
CN1CCN(C2CCN(c3cnc4c(-c5cc(C(F)(F)F)nc6ccccc56)cnn4c3)CC2)CC1 [Compound 236]	975	267
Cc1cc(-c2cnn3cc(N4CC5(CC(N(C)C)C5)C4)cnc23)c2ccccc2n1 [Compound 337]	9	< 1
COc1cc2c(-c3cnn4cc(N5CCC(N6CC7CCC(C6)N7C)CC5)cnc34)ccnc2cc1F [Compound 53]	9	198
Cc1cc(-c2cnn3cc(N4CCN(C5(C)CCNCC5)CC4)cnc23)c2ccccc2n1 [Compound 33]	94	37
COc1cc2c(-c3cnn4cc(N5CCC(N6CCN(C)CC6=O)CC5)cnc34)ccnc2cc1F [Compound 329]	> 1000	> 3000
Cc1cc(-c2cnn3cc(N4CCC(N5CCN(C)CC5)CC4)cc(OC4CCOCC4)c23)c2ccccc2n1 [Compound 223]	272	> 3000
CN1CCN(C2CCN(c3cc(OC4CCOCC4)c4c(-c5cn[nH]c5)cnn4c3)CC2)CC1 [Compound 225]	> 1000	> 3000
Cc1cc(-c2cnn3cc(N4CC(N5CCN(C)CC5)C4)cnc23)c2ccccc2n1 [Compound 222]	14	70
Cc1cc(-c2cnn3cc(N4CCC(N)CC4)cnc23)c2ccccc2n1 [Compound 187]	37	32

Reference: US20230000869A1, “NOVEL ALK2 INHIBITORS AND METHODS FOR INHIBITING BMP SIGNALING” (The Brigham and Women's Hospital, Inc., priority 2017, published 2023)
